Reference: patent publication US4863748A, “Dietary products and uses comprising methylsulfonylmethane” (priority 1986, dated 1989)
Counter-ions that a name gives are not always drawn.

Assays:
Trichomonas vaginalis = assay: Treatment of Trichomonas vaginalis infection in subjects (Example 28(a)); type: in vivo, human; conditions: human, in vivo
From the text: Both had prior courses of therapy for this disorder without adequate response. […]
One subject was later reinfected by their sexual partner but the reinfection was cleared employing a daily douche of 5% aqueous methylsulfonylmethane for one week.

arthritis = assay: Canine arthritis and other sources of pain (Example 30); type: in vivo, dog; conditions: prior treatment
From the text: In each case the methylsulfonylmethane was admixed with the animal's food just prior to feeding.
This animal, although owned by a veterinarian, had not responded to a variety of therapeutic regimens over the previous 12 months. Methylsulfonylmethane was given to this dog in its food at a level of 1.5 grams b.i.d. X 1 month.
It was mobile but walked with obvious difficulty and discomfort. The animals was refractory to both cortisone and phenylbutazone.
The animal had not responded to either cortisone nor phenylbutazone and its condition was deteriorating rapidly. Methylsulfonylmethane was included in its diet at 1 gm/day b.i.d. After one week, the dog appeared to be pain-free.

platelet count = assay: Low platelet count in lupus erythematosus (Example 22); type: in vivo, human; conditions: adult female, after prednisone therapy, before methylsulfonylmethane
From the text: Methylsulfonylmethane administered orally raised the platelet count of an adult with lupus erythematosus from 84,000 (after prednisone therapy) to 200,000 over a 2-year period (1.5 gm/day in 3 doses).

[1] = system: pain in the mid-back region; assay: Acute pain, comparison with codeine, urinary calculi, subject three (Example 32); type: in vivo, human; conditions: for pain relief: subject three
Experimental: Methylsulfonylmethane was compared with codeine for the control of pain in subject three, a person who awakened in the early morning with excruciating pain in the mid-back region, so intense it was difficult to pin-point a specific region. […] Analgesic requirements were 1/2 grain codeine with aspirin every two hours. […] The intense pain returned. The subject was given 1.5 g of methylsulfonylmethane dissolved in 1/2 glass of warm water. At 0.5 hours after taking the methylsulfonylmethane, the pain had essentially disappeared. Methylsulfonylmethane (1.5 g/day) was continued until the afternoon of the third day, when X-ray confirmed that the calculi yet obstructed the ureter. Subject was switched again to codeine with aspirin (1/2 grain×2 hours). […] Methylsulfonylmethane was again administered (1.5 g×4 hours). On day 5 the calculi passed. Recovery was uneventful, requiring neither codeine, methylsulfonylmethane,nor a urinary tract antimicrobial.

[2] = system: scarification of the right cheek pouch; assay: Wound healing of the cheek pouch in hamsters (Example 17); type: in vivo; conditions: 0.1 gm/kg methylsulfonylmethane alone or 100 mg ascorbic acid alone in feed; controls day 4 and 5
Experimental: Four sets of 5 hamsters were subject to scarification of the right cheek pouch, using standard methodology. One week prior to pouch injury, one set was started on a daily regimen of 0.1 gm/kg of methylsulfonylmethane in the diet of standard hamster feed, a second group was given 0.1 gm/kg of methylsulfonylmethane plus 100 mg of ascorbic acid in the same feed, a third group was given only 100 mg of ascorbic acid in the same feed, and the last group, fed only the feed, was held as control. Daily post-scarification examination was made to determine the rate of injury repair.

SMILES: Cc1ncc([N+](=O)[O-])n1CCO [metronidazole HCL, reference compound]
- stomach upset and nausea (Trichomonas vaginalis): side effect experienced by one subject

SMILES: CCCCC1C(=O)N(c2ccccc2)N(c2ccccc2)C1=O [phenylbutazone, reference compound]
- response, Dog A (arthritis): not responsive
- response, Dog C (arthritis): refractory
- response, Dog D (arthritis): not responded

SMILES: C[C@]12C=CC(=O)C=C1CC[C@@H]1[C@@H]2C(=O)C[C@@]2(C)[C@H]1CC[C@]2(O)C(=O)CO [prednisone, reference compound]
- platelet count (platelet count): 84,000

SMILES: C[C@]12CCC(=O)C=C1CC[C@@H]1[C@@H]2C(=O)C[C@@]2(C)[C@H]1CC[C@]2(O)C(=O)CO [cortisone, reference compound]
- response, Dog A (arthritis): not responsive
- response, Dog C (arthritis): refractory
- response, Dog D (arthritis): not responded

SMILES: COc1ccc2c3c1O[C@H]1[C@@H](O)C=C[C@H]4[C@@H](C2)N(C)CC[C@@]341 [codeine]
- mental confusion ([1]; day two, 1/2 grain codeine with aspirin every two hours): mental confusion
- pain relief [1]: acceptable relief

SMILES: CC(=O)Oc1ccccc1C(=O)O [Aspirin]
- pain relief [1]: ineffective

SMILES: O=C1O[C@H]([C@@H](O)CO)C(O)=C1O [vitamin C, ascorbic acid, reference compound]
- day on which the 36-hour combination healing result was matched [2]: three
